The record followed here is US20100113421A1, “NON-NUCLEOSIDE REVERSE TRANSCRIPTASE INHIBITORS” (priority 2006, published 2010).

For the experiment, the system named is HIV strain containing the Y181C mutation. Kind of experiment: Spread assay, Y181C mutant strain. As to conditions: spread assay, Y181C mutant strain, read-out: CIC95. The format is cell-based. As for the experimental part: Assays for the inhibition of acute HIV-1 infection of T-lymphoid cells (alternatively referred to herein as the “spread assay”) were conducted in accordance with Vacca, J. P. et al., Proc. Natl. Acad. Sci. USA 1994, 91: 4096. The assays (using 10% FBS) tested for inhibition of wild type HIV-1 and of HIV strains containing the Y181C or K103N mutation. […] (Note that the compound of Example 6 was tested only up to a 833 nM concentration and the CIC95 value was determined to be >833 nM. The compound of Example 78 was not tested in the Y1818C assay.) The compounds of Examples 1 to 119 (including Examples 70A and 70B) had CIC95 values of less than 1000 nanomolar in the assay employing the K103N mutant strain. In an analogous assay employing a mutant strain containing both the K103N and Y181C mutations, the compounds of Examples 70A, 70B and 78-115 had CIC95 values of less than 1000 nanomolar.

[1] abbreviates: Human immunodeficiency virus 1, 10% FBS.

Where two headings read alike, the source gives them in different places.

For the molecule `Cc1c(C(=O)N(C)Cc2ccc(Cl)cc2Cl)[nH]c(C(N)=O)c1S(=O)(=O)c1ccccc1` [Example 1, N-(2,4-Dichlorobenzyl)-N,3-dimethyl-4-(1-phenylsulfonyl)-1H-pyrrole-2,5-dicarboxamide], the IC95 under setting [1] is under 8 µM. Consider `Cc1c(C(=O)N(C)Cc2ccc(Cl)cc2Cl)[nH]c(C(N)=O)c1S(=O)(=O)c1cc(Cl)cc(Cl)c1` [Example 2, N-(2,4-Dichlorobenzyl)-4-[(3,5-dichlorophenyl)sulfonyl]-N,3-dimethyl-1H-pyrrole-2,5-dicarboxamide], for which the IC95 under setting [1] was under 8 µM. The same measure, in the same setting: for `Cc1cc(C)cc(S(=O)(=O)c2c(C(N)=O)[nH]c(C(=O)N(C)Cc3ccccc3)c2C)c1` [Example 3, N-Benzyl-N,3-dimethyl-4-(3,5-dimethylphenylsulfonyl)-1H-pyrrole-2,5-dicarboxamide] the value was under 8 µM; for `Cc1c(C(=O)N(C)Cc2ccc(F)cc2Cl)[nH]c(C(N)=O)c1S(=O)(=O)c1ccccc1` [Example 4, N-(2-Chloro-4-fluorobenzyl)-N,3-dimethyl-4-(phenylsulfonyl)-1H-pyrrole-2,5-dicarboxamide], under 8 µM.

On to `Cc1c(C(=O)N(C)Cc2ccccc2Cl)[nH]c(C(N)=O)c1S(=O)(=O)c1cccc2ccccc12` [Example 5, N-(2-Chlorobenzyl)-N,3-dimethyl-4-(1-naphthylsulfonyl)-1H-pyrrole-2,5-dicarboxamide], for which the IC95 under setting [1] is under 8 µM.

Turning to `Cc1c(C(=O)N(C)Cc2ccccc2Cl)[nH]c(C(N)=O)c1S(=O)(=O)c1ccc2ccccc2c1` [Example 6, N-(2-Chlorobenzyl)-N,3-dimethyl-4-(2-naphthylsulfonyl)-1H-pyrrole-2,5-dicarboxamide], the IC95 (tested only up to a 833 nM concentration) was over 0.833 µM.

For the molecule `Cc1c(C(=O)N(C)Cc2ccccc2F)[nH]c(C(N)=O)c1S(=O)(=O)c1ccccc1` [Example 7, N-(2-fluorobenzyl)-N,3-dimethyl-4-(phenylsulfonyl)-1H-pyrrole-2,5-dicarboxamide], under setting [1], the IC95 is under 8 µM. On to `Cc1c(C(=O)N(C)Cc2ccccc2Cl)[nH]c(C(N)=O)c1S(=O)(=O)c1ccccc1` [Example 8, N-(2-chlorobenzyl)-N,3-dimethyl-4-(phenylsulfonyl)-1H-pyrrole-2,5-dicarboxamide], for which the IC95 under setting [1] was under 8 µM. On the same count and under the same terms, with `Cc1c(C(=O)N(C)Cc2ccccc2Br)[nH]c(C(N)=O)c1S(=O)(=O)c1ccccc1` [Example 9, N-(2-bromobenzyl)-N,3-dimethyl-4-(phenylsulfonyl)-1H-pyrrole-2,5-dicarboxamide] the figure was under 8 µM; with `Cc1c(C(=O)N(C)Cc2cccc(Cl)c2)[nH]c(C(N)=O)c1S(=O)(=O)c1ccccc1` [Example 10, N-(3-chlorobenzyl)-N,3-dimethyl-4-(phenylsulfonyl)-1H-pyrrole-2,5-dicarboxamide], under 8 µM; with `Cc1c(C(=O)N(C)Cc2ccc(Br)cc2)[nH]c(C(N)=O)c1S(=O)(=O)c1ccccc1` [Example 11, N-(4-bromobenzyl)-N,3-dimethyl-4-(phenylsulfonyl)-1H-pyrrole-2,5-dicarboxamide], under 8 µM. Still for that read-out and setting: for `Cc1c(C(=O)N(C)Cc2ccc(Cl)cc2F)[nH]c(C(N)=O)c1S(=O)(=O)c1ccccc1` [Example 12, N-(4-chloro-2-fluorobenzyl)-N,3-dimethyl-4-(phenylsulfonyl)-1H-pyrrole-2,5-dicarboxamide] the value was under 8 µM; for `Cc1c(C(=O)N(C)Cc2cccc(Cl)c2Cl)[nH]c(C(N)=O)c1S(=O)(=O)c1ccccc1` [Example 13, N-(2,3-dichlorobenzyl)-N,3-dimethyl-4-(phenylsulfonyl)-1H-pyrrole-2,5-dicarboxamide], under 8 µM. The same measure, in the same setting: with `Cc1c(C(=O)N(C)Cc2ccc(Cl)c(Cl)c2)[nH]c(C(N)=O)c1S(=O)(=O)c1ccccc1` [Example 14, N-(3,4-dichlorobenzyl)-N,3-dimethyl-4-(phenylsulfonyl)-1H-pyrrole-2,5-dicarboxamide] the figure was under 8 µM. With `Cc1c(C(=O)N(C)Cc2ccc(S(C)(=O)=O)cc2Cl)[nH]c(C(N)=O)c1S(=O)(=O)c1ccccc1` [Example 15, N-(2-chloro-4-methylsulfonylbenzyl)-N,3-dimethyl-4-(phenylsulfonyl)-1H-pyrrole-2,5-dicarboxamide], the IC95 under setting [1] was under 8 µM. Still for that read-out and setting: for `Cc1c(C(=O)N(C)Cc2ccccc2F)[nH]c(C(N)=O)c1S(=O)(=O)c1cccc(F)c1` [Example 16, N-(2-fluorobenzyl)-N,3-dimethyl-4-(3-fluorophenylsulfonyl)-1H-pyrrole-2,5-dicarboxamide] the value was under 8 µM; for `Cc1c(C(=O)N(C)Cc2ccccc2Cl)[nH]c(C(N)=O)c1S(=O)(=O)c1cccc(F)c1` [Example 17, N-(2-chlorobenzyl)-N,3-dimethyl-4-(3-fluorophenylsulfonyl)-1H-pyrrole-2,5-dicarboxamide], under 8 µM; for `Cc1c(C(=O)N(C)Cc2ccc(Cl)cc2F)[nH]c(C(N)=O)c1S(=O)(=O)c1cccc(F)c1` [Example 18, N-(4-chloro-2-fluorobenzyl)-N,3-dimethyl-4-(3-fluorophenylsulfonyl)-1H-pyrrole-2,5-dicarboxamide], under 8 µM. The same measure, in the same setting: with `Cc1c(C(=O)N(C)Cc2ccc(Cl)cc2Cl)[nH]c(C(N)=O)c1S(=O)(=O)c1cccc(F)c1` [Example 19, N-(2,4-dichlorobenzyl)-N,3-dimethyl-4-(3-fluorophenylsulfonyl)-1H-pyrrole-2,5-dicarboxamide] the figure was under 8 µM. The same measure, in the same setting: for `Cc1c(C(=O)N(C)Cc2ccccc2Cl)[nH]c(C(N)=O)c1S(=O)(=O)c1cccc(Cl)c1` [Example 20, N-(2-chlorobenzyl)-N,3-dimethyl-4-(3-chlorophenylsulfonyl)-1H-pyrrole-2,5-dicarboxamide] the value was under 8 µM; for `Cc1c(C(=O)N(C)Cc2ccc(Cl)cc2Cl)[nH]c(C(N)=O)c1S(=O)(=O)c1cccc(Cl)c1` [Example 21, N-(2,4-dichlorobenzyl)-N,3-dimethyl-4-(3-chlorophenylsulfonyl)-1H-pyrrole-2,5-dicarboxamide], under 8 µM. Consider `Cc1c(C(=O)N(C)Cc2ccccc2)[nH]c(C(N)=O)c1S(=O)(=O)c1cccc(C(F)(F)F)c1` [Example 22, N-benzyl-N,3-dimethyl-4-(3-trifluoromethylphenylsulfonyl)-1H-pyrrole-2,5-dicarboxamide], for which, under setting [1], the IC95 was under 8 µM. The same measure, in the same setting: for `Cc1c(C(=O)N(C)Cc2ccc(Cl)cc2Cl)[nH]c(C(N)=O)c1S(=O)(=O)c1cccc(C(F)(F)F)c1` [Example 23, N-(2,4-dichlorobenzyl)-N,3-dimethyl-4-(3-trifluoromethylphenylsulfonyl)-1H-pyrrole-2,5-dicarboxamide] the value was under 8 µM; for `Cc1cc(C)cc(S(=O)(=O)c2c(C(N)=O)[nH]c(C(=O)N(C)Cc3ccccc3F)c2C)c1` [Example 24, N-(2-fluorobenzyl)-N,3-dimethyl-4-(3,5-dimethylphenylsulfonyl)-1H-pyrrole-2,5-dicarboxamide], under 8 µM. Same read-out and setting: for `Cc1cc(C)cc(S(=O)(=O)c2c(C(N)=O)[nH]c(C(=O)N(C)Cc3ccccc3Cl)c2C)c1` [Example 25, N-(2-chlorobenzyl)-N,3-dimethyl-4-(3,5-dimethyiphenylsulfonyl)-1H-pyrrole-2,5-dicarboxamide] the value was under 8 µM.
